From ChEMBL document CHEMBL1146437, “Asterlingulatosides C and D, cytotoxic triterpenoid saponins from Aster lingulatus” (J Nat Prod, 1997)

tested on: HL-60; assay: Cytotoxicity against human HL60 cells assessed as inhibition of [3H]thymidine incorporation; format: functional, cell-based

| Compound | IC50 [µM] |
| --- | --- |
| CC1(C)CC[C@]2(C(=O)O[C@@H]3OC[C@H](O)[C@H](O)[C@H]3O)[C@H](O)C[C@]3(C)C(=CC[C@@H]4[C@@]5(C)CC[C@H](O[C@@H]6O[C@H](CO)[C@@H](O)[C@H](O)[C@H]6O)C(C)(C)[C@@H]5CC[C@]43C)[C@@H]2C1 [ASTERLINGULATOSIDE A] | 39 |
| C[C@@H]1O[C@@H](O[C@H]2[C@H](OC(=O)[C@]34CCC(C)(C)C[C@H]3C3=CC[C@@H]5[C@@]6(C)CC[C@H](O[C@@H]7O[C@H](CO)[C@@H](O)[C@H](O)[C@H]7O)C(C)(C)[C@@H]6CC[C@@]5(C)[C@]3(C)C[C@H]4O)OC[C@H](O)[C@@H]2O)[C@H](O)[C@H](O)[C@H]1O [ASTERLINGULATOSIDE B] | 70.4 |
| C[C@@H]1O[C@@H](O[C@H]2[C@H](OC(=O)[C@]34CCC(C)(C)C[C@H]3C3=CC[C@@H]5[C@@]6(C)CC[C@H](O[C@@H]7O[C@H](CO)[C@@H](O)[C@H](O)[C@H]7O)C(C)(C)[C@@H]6CC[C@@]5(C)[C@]3(C)C[C@H]4O)OC[C@H](O)[C@@H]2O)[C@H](O)[C@H](O)[C@H]1O[C@@H]1OC[C@@H](O)[C@H](O)[C@H]1O [ASTERLINGULATOSIDE C] | 8.8 |
| C[C@@H]1O[C@@H](O[C@H]2[C@H](OC(=O)[C@]34CCC(C)(C)C[C@H]3C3=CC[C@@H]5[C@@]6(C)CC[C@H](O[C@@H]7O[C@H](CO)[C@@H](O)[C@H](O)[C@H]7O)C(C)(C)[C@@H]6CC[C@@]5(C)[C@]3(C)C[C@H]4O)OC[C@H](O)[C@@H]2O)[C@H](O)[C@H](O)[C@H]1O[C@@H]1OC[C@@H](O)[C@H](O[C@@H]2OC[C@@H](O)[C@H](O)[C@H]2O)[C@H]1O [ASTERLINGULATOSIDE] | 6.1 |
